{
  "source": "paper PMC7725506",
  "about": "“Functional Diversification of SRSF Protein Kinase to Control Ubiquitin-Dependent Neurodevelopmental Signaling” (Developmental Cell, 2020)",
  "key": {"SRPK2": {"molecular_target": "SRPK2 (Homo sapiens, UniProt P78362)", "sequence (P78362 1-699 isoform P78362-2)": "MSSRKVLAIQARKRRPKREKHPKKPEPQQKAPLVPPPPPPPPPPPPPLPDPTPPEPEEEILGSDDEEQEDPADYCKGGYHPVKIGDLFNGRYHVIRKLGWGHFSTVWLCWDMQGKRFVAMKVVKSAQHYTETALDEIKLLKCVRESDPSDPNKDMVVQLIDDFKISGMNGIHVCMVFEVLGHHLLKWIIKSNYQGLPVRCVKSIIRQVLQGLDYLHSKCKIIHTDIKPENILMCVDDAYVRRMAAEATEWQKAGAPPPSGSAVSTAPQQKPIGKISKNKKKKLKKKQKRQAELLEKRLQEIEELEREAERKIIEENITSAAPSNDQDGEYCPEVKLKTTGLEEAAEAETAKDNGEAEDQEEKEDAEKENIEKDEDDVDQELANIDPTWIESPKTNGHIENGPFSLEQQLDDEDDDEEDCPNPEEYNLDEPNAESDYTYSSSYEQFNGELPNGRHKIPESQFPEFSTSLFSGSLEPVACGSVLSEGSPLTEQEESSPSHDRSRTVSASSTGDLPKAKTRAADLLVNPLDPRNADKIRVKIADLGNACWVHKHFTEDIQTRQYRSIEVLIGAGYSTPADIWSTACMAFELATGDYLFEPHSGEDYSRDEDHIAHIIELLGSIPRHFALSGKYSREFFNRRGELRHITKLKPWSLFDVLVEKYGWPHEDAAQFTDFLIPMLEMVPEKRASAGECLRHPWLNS", "assay": "REX1 fluorescent ubiquitylation assay with recombinant RNF12 incubated with SRPK2", "type": "biochemical", "details": "pre-incubation with 10 μM", "procedure": "Infrared scans of ubiquitylated substrate signal (Top) and quantification (Bottom). Data represented as mean ± SEM (n = 3). […] (^∗) p = 0.0350. Phospho-Ser214 and total RNF12, REX1, and SRPK2 infrared immunoblots are shown. ^∗ = non-specific fluorescent signal. (B) Recombinant RNF12 was incubated with WT or kinase dead (KD) SRPK2 and subjected to REX1 fluorescent ubiquitylation assays. Infrared scans of ubiquitylated substrate signal (Top) and quantification (Bottom). Data represented as mean ± SEM (n = 3). […] (^∗∗∗∗) p < 0.0001. Phospho-Ser214 and total RNF12, REX1, and SRPK2 infrared immunoblots are shown. ^∗ = non-specific fluorescent signal. (C) Recombinant RNF12 was incubated with WT or KD SRPK2 and SMAD7 ubiquitylation assessed. Infrared scans of ubiquitylated substrate signal (Top) and quantification (Bottom). Data represented as mean ± SD (n = 2). Phospho-Ser214 and total RNF12, REX1, and SRPK2 infrared immunoblots are shown. ^∗ = non-specific fluorescent signal. (D) Recombinant RNF12 was incubated with WT (pRNF12) or KD (unpRNF12) SRPK2 and subjected to E2 ubiquitin discharge assay. Infrared immunoblot scans (Top Left), reaction rate determinations (Top Right) and normalized quantification of E2-ubiquitin conjugate signal (Bottom) are shown. […] RNF12, REX1, phospho-Ser214 RNF12 and SRPK1 infrared immunoblots (Top) and RNF12-REX1 binding quantification (bottom) are shown. […]"}, "[1]": {"system": "Ser-Arg rich splicing factors (SRSF)", "assay": "SRSF phosphorylation in mESCs, immunoblotting with phosphoepitope SR proteins antibody", "type": "cell-based, mouse", "details": "10 μM, 4 h", "method": "SRSF phosphorylation, SRPK1, SRPK2, and ERK1/2 levels were determined by immunoblotting. […] Quantification of SRSF phosphorylation (Right). Data represented as mean ± SEM (n = 4). […] Data represented as mean ± SEM (n = 3). One-way ANOVA followed by Tukey’s multiple comparisons test; confidence level 95%.\nAll compounds were diluted in DMSO and mESCs treated with 10 μM inhibitor for 4 h prior lysis unless indicated otherwise.\nSDS-PAGE electrophoresis and immunoblotting was performed using standard methods. Cells were lysed in lysis buffer (20 mM Tris [pH 7.4], 150 mM NaCl, 1 mM EDTA, 1% NP-40 [v/v], 0.5% sodium deoxycholate [w/v], 10 mM β-glycerophosphate, 10 mM sodium pyrophosphate, 1 mM NaF, 2 mM Na3VO4, and Roche Complete Protease Inhibitor Cocktail Tablets). Phospho-specific antibodies were used at 1 μg/ml with 10 μg/ml of the corresponding non-phosphopeptide. After secondary antibody incubation, membranes were subjected to chemiluminescence detection with Immobilon Western Chemiluminescent HRP Substrate (Millipore) using a Gel-Doc XR+ System (Bio-Rad) or Infrared detection using a LI-COR Odyssey Clx system."}, "[2]": {"system": "Foxp1 exon 16-16b alternative splicing switch", "assay": "Foxp1 exon 16-16b incorporation in mESCs by quantitative RT-PCR", "type": "cell-based, mouse", "details": "1 μM, 8 h", "procedure": "SRSF phosphorylation, SRPK1, SRPK2, and ERK1/2 levels were determined by immunoblotting. Expected positions of SRSFs that are not detected are shown in gray. Quantification of SRSF phosphorylation (Right). Data represented as mean ± SEM (n = 4). […] Neuro 2a is a control for exon 16b exclusion in differentiated cells (Bottom). Data represented as mean ± SEM (n = 3). […] Exon 16 inclusion: (^∗∗∗∗) p < 0.0001, Exon 16b inclusion: (^∗) p = 0.0164, p = 0.0485, and p = 0.0489 (left to right). Ratio exon 16b/16: (^∗∗∗∗) p < 0.0001, (^∗∗∗) p = 0.0003. (C) SRPK substrates predicted using ScanProsite and grouped according to UniProt functions. (D) RNF12 phosphorylation sites detected by mass-spectrometry. LZL, leucine-zipper like; NLS, nuclear localization signal; NES, nuclear export signal; RING, RING E3 ubiquitin ligase catalytic domain. (E) CMGC family kinase copy numbers in mESCs determined by quantitative proteomics and represented using Kinoviewer. (F) CMGC kinase (200 mU) phosphorylation of the RNF12 SR-motif in vitro was determined by immunoblotting for RNF12 phospho-Ser214 and total RNF12. […] Normalized RNF12 Ser214 phosphorylation is shown below. Data represented as mean ± SEM (n = 3). […] RNF12 SR-motif phosphorylation was analyzed by immunoblotting for RNF12 phospho-Ser214 and RNF12. SRPK1 and SRPK2 levels are shown as a loading control, Related to Figure S1; Tables S1 and S2.\nTotal RNA extraction and reverse transcription was performed as described. Quantitative PCR reactions using SsoFast EvaGreen Supermix (Bio-Rad) were performed in a CFX384 real time PCR system (Bio-Rad). Relative RNA expression was calculated through the ΔΔCt method and normalised to Gapdh expression. Data was analysed in Excel (Microsoft) and statistical analysis performed in GraphPad Prism v7.0c software (GraphPad Software Inc.)."}},
  "data": [
    {"smiles": "CCc1cc2c(cc1-c1cccc(S(=O)(=O)F)c1)C(C)(C)c1[nH]c3cc(C#N)ccc3c1C2=O", "note": "[SRPKIN-1]", "values": [
      {"measurement": "enhancement of REX1 ubiquitylation following RNF12 phosphorylation by SRPK2", "setting": "SRPK2", "value": "not observed"},
      {"measurement": "phosphorylation of SRSF4", "setting": "[1]", "value": "only slightly inhibited"},
      {"measurement": "phosphorylation of SRSF6/11, SRSF5/7/10", "setting": "[1]", "value": "not significantly altered"},
      {"measurement": "Foxp1 exon 16b-exon 16 inclusion", "setting": "[2]", "value": "little effect"}
    ]}
  ]
}
